# pIC50: −log10 of the molar value. Counter-ions that a name gives are not always drawn.
# Columns and labels:
# PAD4 [1] = target: T1, PAD4 (Homo sapiens (Human), UniProt Q9UM07); assay: FP binding assay; settings: for actively inhibiting PAD4 enzyme activity, FP Binding assay: summary of Table 1
# Protocol: Binding of compounds with PAD4 was detected by FP assay. PAD4 was diluted to 1 uM in assay buffer (100 mM HEPES, 50 mM NaCl, 1 mM DTT, 5% Glycerol and 1 mM CHAPS) and added to wells containing various concentration of compounds or DMSO vehicle (1%) in a 384 well black plate. 10 nM of fluorescein labelled probe (JPAD-00085) was added to the plate.
# PAD4 [2] = target: T1, PAD4; assay: Ammonia release biochemical assay (citrullination)
# Protocol: Ammonia Release Biochemical Assay
# Citrullination assay was detected via ammonia release. […] The reaction was stopped after 60 min by addition of stop/detection buffer containing 50 mM EDTA, 2.6 mM of o-phthaladehyde and 2.6 mM DTT.
# [3] = Table 1, class A, read-out: IC50 value, ammonia release biochemical assay
# [4] = read-out: NH3 release biochemical assay PAD4 IC50
# T1 sequence (Q9UM07 whole entry): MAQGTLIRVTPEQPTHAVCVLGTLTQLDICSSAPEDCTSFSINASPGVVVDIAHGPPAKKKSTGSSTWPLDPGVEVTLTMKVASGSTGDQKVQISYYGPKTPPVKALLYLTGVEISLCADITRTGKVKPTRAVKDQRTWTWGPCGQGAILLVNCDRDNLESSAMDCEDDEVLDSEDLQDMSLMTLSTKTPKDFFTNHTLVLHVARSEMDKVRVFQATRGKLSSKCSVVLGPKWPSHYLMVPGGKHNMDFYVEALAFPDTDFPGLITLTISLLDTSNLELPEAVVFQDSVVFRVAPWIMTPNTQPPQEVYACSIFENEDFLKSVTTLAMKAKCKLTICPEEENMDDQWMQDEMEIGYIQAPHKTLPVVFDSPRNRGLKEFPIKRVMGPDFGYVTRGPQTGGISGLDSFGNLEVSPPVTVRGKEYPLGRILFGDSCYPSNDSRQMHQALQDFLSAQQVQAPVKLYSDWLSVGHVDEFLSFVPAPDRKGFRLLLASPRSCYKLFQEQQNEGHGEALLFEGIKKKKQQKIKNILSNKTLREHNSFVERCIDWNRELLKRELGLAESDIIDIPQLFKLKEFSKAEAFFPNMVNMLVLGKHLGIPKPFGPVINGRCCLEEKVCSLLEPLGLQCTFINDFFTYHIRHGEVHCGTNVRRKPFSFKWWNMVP
compound,measurement,setting,value
"Cc1c(-c2cc3ccccc3n2Cc2ccc(F)cc2)nc2cc(C(=O)N3CCC[C@@H](N)C3)ccn12 [Compound 13, (R)-(3-Aminopiperidin-1-yl)(2-(1-(4-fluorobenzyl)-1H-indol-2-yl)-3-methylimidazo[1,2-a]pyridin-7-yl)methanone]",pIC50,PAD4 [1],> 6.00
same,"actively inhibiting PAD4 enzyme activity, FP Binding assay",PAD4 [1],actively inhibiting PAD4 enzyme activity
same,pIC50,PAD4 [2]; [3],≥ 6.00
same,pIC50,PAD4 [2]; [4],> 6.00
"Cc1c(-c2cc3ccccc3n2Cc2ccccn2)nc2cc(C(=O)N3CCC[C@@H](N)C3)ccn12 [Compound 16, (R)-(3-Aminopiperidin-1-yl)(3-methyl-2-(1-(pyridin-2-ylmethyl)-1H-indol-2-yl)imidazo[1,2-a]pyridin-7-yl)methanone]",pIC50,PAD4 [1],> 6.00
same,"actively inhibiting PAD4 enzyme activity, FP Binding assay",PAD4 [1],actively inhibiting PAD4 enzyme activity
same,pIC50,PAD4 [2]; [4],> 6.00
"COc1ccc2cc(-c3nc4cc(C(=O)N5CCC[C@@H](N)C5)ccn4c3C)n(CC3CC3)c2c1 [Compound 23, (R)-(3-Aminopiperidin-1-yl)(2-(1-(cyclopropylmethyl)-6-methoxy-1H-indol-2-yl)-3-methylimidazo[1,2-a]pyridin-7-yl)methanone]",pIC50,PAD4 [1],> 6.00
same,"actively inhibiting PAD4 enzyme activity, FP Binding assay",PAD4 [1],actively inhibiting PAD4 enzyme activity
same,pIC50,PAD4 [2]; [4],> 6.00
"Cc1c(-c2cc3ccc(F)cc3n2CC2CC2)nc2cc(C(=O)N3CCC[C@@H](N)C3)ccn12 [Compound 28, (R)-(3-Aminopiperidin-1-yl)(2-(1-(cyclopropylmethyl)-6-fluoro-1H-indol-2-yl)-3-methylimidazo[1,2-a]pyridin-7-yl)methanone]",pIC50,PAD4 [1],> 6.00
same,pIC50,PAD4 [2]; [4],> 6.00
"Cc1c(-c2cc3cc(F)ccc3n2CC2CC2)nc2cc(C(=O)N3CCC[C@@H](N)C3)ccn12 [Compound 29, (R)-(3-Aminopiperidin-1-yl)(2-(1-(cyclopropylmethyl)-5-fluoro-1H-indol-2-yl)-3-methylimidazo[1,2-a]pyridin-7-yl)methanone]",pIC50,PAD4 [1],> 6.00
same,pIC50,PAD4 [2]; [4],> 6.00
"Cc1cccc2cc(-c3nc4cc(C(=O)N5CCC[C@@H](N)C5)ccn4c3C)n(CC3CC3)c12 [Compound 30, (R)-(3-Aminopiperidin-1-yl)(2-(1-(cyclopropylmethyl)-7-methyl-1H-indol-2-yl)-3-methylimidazo[1,2-a]pyridin-7-yl)methanone]",pIC50,PAD4 [1],> 6.00
same,pIC50,PAD4 [2]; [4],> 6.00
"N[C@@H]1CCCN(C(=O)c2ccn3c(-c4ccccc4)c(-c4cc5ccccc5n4CC4CC4)nc3c2)C1 [Compound 32, (R)-(3-Aminopiperidin-1-yl)(2-(1-(cyclopropylmethyl)-1H-indol-2-yl)-3-phenylimidazo[1,2-a]pyridin-7-yl)methanone]",pIC50,PAD4 [1],< 5.00
same,pIC50,PAD4 [2]; [4],< 5.00
"Cc1c(-c2cc3ccccc3n2Cc2ccsc2)nc2cc(C(=O)N3CCC[C@@H](N)C3)ccn12 [Compound 36, (R)-(3-aminopiperidin-1-yl)(3-methyl-2-(1-(thiophen-3-ylmethyl)-1H-indol-2-yl)imidazo[1,2-a]pyridin-7-yl)methanone]",pIC50,PAD4 [1],> 6.00
same,"actively inhibiting PAD4 enzyme activity, FP Binding assay",PAD4 [1],actively inhibiting PAD4 enzyme activity
same,pIC50,PAD4 [2]; [4],> 6.00
"CCn1c(-c2nc3cc(C(=O)N4CCC[C@@H](N)C4)ccn3c2C)cc2cc(F)ccc21 [Compound 39, (R)-(3-aminopiperidin-1-yl)(2-(1-ethyl-5-fluoro-1H-indol-2-yl)-3-methylimidazo[1,2-a]pyridin-7-yl)methanone]",pIC50,PAD4 [1],> 6.00
same,"actively inhibiting PAD4 enzyme activity, FP Binding assay",PAD4 [1],actively inhibiting PAD4 enzyme activity
same,pIC50,PAD4 [2]; [3],≥ 6.00
same,pIC50,PAD4 [2]; [4],> 6.00
"COc1ccc(Cn2c(-c3nc4cc(C(=O)N5CCC[C@@H](N)C5)ccn4c3C)cc3ccccc32)nc1 [Compound 63, (R)-(3-aminopiperidin-1-yl)(2-(1-((5-methoxypyridin-2-yl)methyl)-1H-indol-2-yl)-3-methylimidazo[1,2-a]pyridin-7-yl)methanone]",pIC50,PAD4 [2]; [4],> 6.00
"COCCn1c(-c2nc3cc(C(=O)N4CCC[C@@H](N)C4)ccn3c2C)cc2ccccc21 [Compound 64, (R)-(3-aminopiperidin-1-yl) (2-(1-(2-methoxyethyl)-1H-indol-2-yl)-3-methylimidazo[1,2-a]pyridin-7-yl)methanone]",pIC50,PAD4 [2]; [4],> 6.00
"COc1ccc2cc(-c3nc4cc(C(=O)N5CCC[C@@H](N)C5)ccn4c3C)n(Cc3ccncc3)c2c1 [Compound 66, (R)-(3-aminopiperidin-1-yl)(2-(6-methoxy-1-(pyridin-4-ylmethyl)-1H-indol-2-yl)-3-methylimidazo[1,2-a]pyridin-7-yl)methanone]",pIC50,PAD4 [2]; [4],< 5.00
"CCn1c(-c2nc3cc(C(=O)N4CCC[C@@H](N)C4)ccn3c2C)cc2ccc(OC)cc21 [Compound 67, (R)-(3-aminopiperidin-1-yl)(2-(1-ethyl-6-methoxy-1H-indol-2-yl)-3-methylimidazo[1,2-a]pyridin-7-yl)methanone]",pIC50,PAD4 [2]; [4],> 6.00
"Cc1c(-c2cc3ccc(F)cc3n2Cc2ccncc2)nc2cc(C(=O)N3CCC[C@@H](N)C3)ccn12 [Compound 68, (R)-(3-aminopiperidin-1-yl)(2-(6-fluoro-1-(pyridin-4-ylmethyl)-1H-indol-2-yl)-3-methylimidazo[1,2-a]pyridin-7-yl)methanone]",pIC50,PAD4 [2]; [4],> 6.00
"Cc1c(-c2cc3ccc(F)cc3n2Cc2cccnc2)nc2cc(C(=O)N3CCC[C@@H](N)C3)ccn12 [Compound 69, (R)-(3-aminopiperidin-1-yl)(2-(6-fluoro-1-(pyridin-3-ylmethyl)-1H-indol-2-yl)-3-methylimidazo[1,2-a]pyridin-7-yl)methanone]",pIC50,PAD4 [2]; [4],> 6.00
"COc1cccc(Cn2c(-c3nc4cc(C(=O)N5CCC[C@@H](N)C5)ccn4c3C)cc3ccc(F)cc32)c1 [Compound 70, (R)-(3-aminopiperidin-1-yl)(2-(6-fluoro-1-(3-methoxybenzyl)-1H-indol-2-yl)-3-methylimidazo[1,2-a]pyridin-7-yl)methanone]",pIC50,PAD4 [2]; [4],> 6.00
"COc1ccc(Cn2c(-c3nc4cc(C(=O)N5CCC[C@@H](N)C5)ccn4c3C)cc3ccc(F)cc32)cc1 [Compound 71, (R)-(3-aminopiperidin-1-yl)(2-(6-fluoro-1-(4-methoxybenzyl)-1H-indol-2-yl)-3-methylimidazo[1,2-a]pyridin-7-yl)methanone]",pIC50,PAD4 [2]; [4],> 6.00
"CCn1c(-c2nc3cc(C(=O)N4CCC[C@@H](N)C4)ccn3c2C)cc2ccc(F)cc21 [Compound 72, (R)-(3-aminopiperidin-1-yl)(2-(1-ethyl-6-fluoro-1H-indol-2-yl)-3-methylimidazo[1,2-a]pyridin-7-yl)methanone]",pIC50,PAD4 [2]; [4],> 6.00
"Cc1c(-c2cc3ccc(F)cc3n2CC(C)C)nc2cc(C(=O)N3CCC[C@@H](N)C3)ccn12 [Compound 73, (R)-(3-aminopiperidin-1-yl)(2-(6-fluoro-1-isobutyl-1H-indol-2-yl)-3-methylimidazo[1,2-a]pyridin-7-yl)methanone]",pIC50,PAD4 [2]; [4],> 6.00
"Cc1c(-c2cc3cc(F)ccc3n2Cc2ccncc2)nc2cc(C(=O)N3CCC[C@@H](N)C3)ccn12 [Compound 74, (R)-(3-aminopiperidin-1-yl)(2-(5-fluoro-1-(pyridin-4-ylmethyl)-1H-indol-2-yl)-3-methylimidazo[1,2-a]pyridin-7-yl)methanone]",pIC50,PAD4 [2]; [4],> 6.00
"COc1ccc(Cn2c(-c3nc4cc(C(=O)N5CCC[C@@H](N)C5)ccn4c3C)cc3cc(F)ccc32)cc1 [Compound 75, (R)-(3-aminopiperidin-1-yl)(2-(5-fluoro-1-(4-methoxybenzyl)-1H-indol-2-yl)-3-methylimidazo[1,2-a]pyridin-7-yl)methanone]",pIC50,PAD4 [2]; [4],> 6.00
"Cc1c(-c2cc3cc(F)ccc3n2Cc2ccc(F)cc2)nc2cc(C(=O)N3CCC[C@@H](N)C3)ccn12 [Compound 76, (R)-(3-aminopiperidin-1-yl)(2-(5-fluoro-1-(4-fluorobenzyl)-1H-indol-2-yl)-3-methylimidazo[1,2-a]pyridin-7-yl)methanone]",pIC50,PAD4 [2]; [4],> 6.00
"Cc1c(-c2cc3cccc(Cl)c3n2Cc2ccc(F)cc2)nc2cc(C(=O)N3CCC[C@@H](N)C3)ccn12 [Compound 77, (R)-(3-aminopiperidin-1-yl)(2-(7-chloro-1-(4-fluorobenzyl)-1H-indol-2-yl)-3-methylimidazo[1,2-a]pyridin-7-yl)methanone]",pIC50,PAD4 [2]; [4],> 6.00
"Cc1c(-c2cc3ccccc3n2CC(F)F)nc2cc(C(=O)N3CCC[C@@H](N)C3)ccn12 [Compound 78, (R)-(3-aminopiperidin-1-yl)(2-(1-(2,2-difluoroethyl)-1H-indol-2-yl)-3-methylimidazo[1,2-a]pyridin-7-yl)methanone Trifluoroacetic Acid Salt]",pIC50,PAD4 [2]; [4],> 6.00
"Cc1c(-c2cc3ccccc3n2Cc2ccc(F)cn2)nc2cc(C(=O)N3CCC[C@@H](N)C3)ccn12 [Compound 79, (R)-(3-aminopiperidin-1-yl)(2-(1-((5-fluoropyridin-2-yl)methyl)-1H-indol-2-yl)-3-methylimidazo[1,2-a]pyridin-7-yl)methanone]",pIC50,PAD4 [2]; [4],> 6.00
"COc1ccc2cc(-c3nc4cc(C(=O)N5CCC[C@@H](N)C5)ccn4c3C)n(Cc3ccc(F)cc3)c2c1 [Compound 80, (R)-(3-aminopiperidin-1-yl)(2-(1-(4-fluorobenzyl)-6-methoxy-1H-indol-2-yl)-3-methylimidazo[1,2-a]pyridin-7-yl)methanone]",pIC50,PAD4 [2]; [4],> 6.00
"COc1ccc2cc(-c3nc4cc(C(=O)N5CCC[C@@H](N)C5)ccn4c3C)n(CC(C)C)c2c1 [Compound 82, (R)-(3-aminopiperidin-1-yl)(2-(1-isobutyl-6-methoxy-1H-indol-2-yl)-3-methylimidazo[1,2-a]pyridin-7-yl)methanone]",pIC50,PAD4 [2]; [3],≥ 6.00
same,pIC50,PAD4 [2]; [4],> 6.00
"COc1ccc2cc(-c3nc4cc(C(=O)N5CCC[C@@H](N)C5)ccn4c3C)n(CC(F)F)c2c1 [Compound 83, (R)-(3-aminopiperidin-1-yl)(2-(1-(2,2-difluoroethyl)-6-methoxy-1H-indol-2-yl)-3-methylimidazo[1,2-a]pyridin-7-yl)methanone]",pIC50,PAD4 [2]; [3],≥ 6.00
same,pIC50,PAD4 [2]; [4],> 6.00
"COc1cc(Cn2c(-c3nc4cc(C(=O)N5CCC[C@@H](N)C5)ccn4c3C)cc3ccccc32)ccc1F [Compound 85, (R)-(3-aminopiperidin-1-yl)(2-(1-(4-fluoro-3-methoxybenzyl)-1H-indol-2-yl)-3-methylimidazo[1,2-a]pyridin-7-yl)methanone]",pIC50,PAD4 [2]; [3],≥ 6.00
same,pIC50,PAD4 [2]; [4],> 6.00
